Here are results for 27 compounds from patent publication US20060194969A1, “4-Substituted benzimidazoles and their uses as inhibitors of gastric secretion” (priority 2002, published 2006).

What is called melting point is the temperature, or range, at which the solid turns liquid.

In turn, `CCc1cccc(C)c1CNc1cc(C(=O)O)cc2c1nc(C)n2C` [Example 31, 4-(2-Ethyl-6-methyl-benzylamino)-1,2-dimethyl-1H-benzimidazole-6-carboxylic Acid] registered a melting point of 312 to 314 °C.

Take `CCOC(=O)c1cc(NCc2c(C)cccc2CC)c2nc(C)n(C)c2c1` [Example 27, Ethyl 4-(2-ethyl-6-methyl-benzylamino)-1,2-dimethyl-1H-benzimidazole-6-carboxylate]: the melting point is 171 to 173 °C.

As for `CCOC(=O)c1cc(NCc2c(C)cccc2C)c2nc(C)n(C)c2c1` [Example 28, Ethyl 4-(2,6-dimethyl-benzylamino)-1,2-dimethyl-1H-benzimidazole-6-carboxylate], the melting point is 190 °C.

The compound `Cc1nnc(-c2cc(NCc3c(C)cccc3C)c3nc(C)n(C)c3c2)o1` [Example 85, 4-(2,6-Dimethyl-benzylamino)-6-(5-methyl-[1,3,4]oxadiazol-2yl)-1,2-dimethyl-1H-benzimidazole] registered a melting point of 256 to 257 °C.

As for `Cc1cccc(C)c1CNc1cc(Br)cc2c1nc(C)n2O` [Example 76, 6-Bromo-4-(2,6-dimethyl-benzylamino)-1-hydroxy-2-methyl-1H-benzimidazole], the melting point is 277 °C.

With `Cc1cccc(C)c1CNc1cc(CO)cc2c1nc(C)n2C` [Example 58, 4-(2,6-Dimethyl-benzylamino)-6-hydroxymethyl-1,2-dimethyl-1H-benzimidazole], the melting point was 245 to 246 °C.

`COC(=O)c1cc(OCc2c(C)cccc2C)c2nc(C)n(C)c2c1` [Example 3, Methyl 4-(2,6-dimethyl-benzyloxy)-1,2-dimethyl-1H-benzimidazole-6-carboxylate] came in with a melting point of 165 to 169 °C.

Compound `Cc1nc2c(N[C@@H]3c4ccccc4C[C@H]3O)cc(C(=O)N(C)C)cc2n1C` (relative stereo) [Example 51, 4-(trans-2,3-Dihydro-2-hydroxy-1-indenylamino)-6-(N,N-dimethylaminocarbonyl)-1,2-dimethyl-1H-benzimidazole] gave a melting point of 219 to 221 °C.

Take `Cc1cccc(C)c1CNc1cc(C2=NCCO2)cc2c1nc(C)n2C` [Example 74, 6-(4,5-Dihydro-oxazol-2-yl)-4-(2,6-dimethyl-benzylamino)-1,2-dimethyl-1H-benzimidazole]: the melting point was 235 °C.

On to `COn1c(C)nc2c(NCc3c(C)cccc3C)cc(C(=O)O)cc21` [Example 79, 4-(2,6-Dimethyl-benzylamino)-1-methoxy-2-methyl-1H-benzimidazole-6-carboxylic acid], for which the melting point fell in the range of 248 to 249 °C.

For `CCN(CCOC)C(=O)c1cc(O[C@@H]2c3ccccc3C[C@H]2O)c2nc(C)n(C)c2c1.O=C(O)C(=O)O` (relative stereo) [Example 24, 4-(trans-2,3-Dihydro-2-hydroxy-1-indenyloxy)-6-[N-(2-methoxyethyl)-N-ethyl-amino-carbonyl]-1,2-dimethyl-1H-benzimidazole Oxalate], the melting point was 141 °C.

As for `Cc1nc2c(NCc3c(C)cccc3C)cc(C(=O)N(C)C)cc2[nH]1` [Example 67, 6-(N,N-Dimethylaminocarbonyl)-4-(2,6-dimethyl-benzylamino)-2-methyl-1H-benzimidazole], the melting point was 203 °C.

For `CCOC(=O)c1cc(NCc2c(C)cccc2CC)c2nc(COC)n(C)c2c1` [Example 29, Ethyl 4-(2-ethyl-6-methyl-benzylamino)-2-methoxymethyl-1-methyl-1H-benzimidazole-6-carboxylate], the melting point lay in the range of 106 to 107 °C.

Take `Cc1cccc(C)c1CNc1cc(C(=O)N(C)C)cc2c1nc(CO)n2C` [Example 82, 6-(N,N-Dimethylaminocarbonyl)-4-(2,6-dimethyl-benzylamino)-2-hydroxymethyl-1-methyl-1H-benzimidazole]: the melting point fell in the range of 171 to 172 °C.

For `COCc1cc(OCc2ccccc2)c2nc(C)n(C)c2c1` [Example 6, 4-Benzyloxy-6-methoxymethyl-1,2-dimethyl-1H-benzimidazole], the melting point turned out to be 113 °C.

As for `Cc1cccc(CO)c1CNc1cc(C(=O)N(C)C)cc2c1nc(C)n2C` [Example 70, 6-(N,N-Dimethylaminocarbonyl)-4-(2-hydroxymethyl-6-methyl-benzylamino)-1,2-dimethyl-1H-benzimidazole], the melting point was 197 to 198 °C.

`Cc1cccc(C)c1CNc1cc(C(N)=O)cc2c1nc(C)n2C` [Example 39, 4-(2,6-Dimethyl-benzylamino)-1,2-dimethyl-1H-benzimidazole-6-carboxamide] displayed a melting point of 272 °C.

In turn, `Cc1cccc(C)c1COc1cc(C(=O)O)cc2c1nc(C)n2C` [Example 4, 4-(2,6-Dimethyl-benzyloxy)-1,2-dimethyl-1H-benzimidazole-6-carboxylic Acid] yielded a melting point of 285 to 286 °C.

Turning to `CCOC(=O)c1cc(NCc2c(C)cccc2C)c2nc(C)n(OC)c2c1` [Example 78, Ethyl 4-(2,6-dimethyl-benzylamino)-1-methoxy-2-methyl-1H-benzimidazole-6-carboxylate], the melting point is 165 to 166 °C.

Compound `Cc1nc2c(O[C@@H]3c4ccccc4C[C@H]3O)cc(C(=O)O)cc2n1C` (relative stereo) [Example 16, 4-(trans-2,3-Dihydro-2-hydroxy-1-indenyloxy)-1,2-dimethyl-1H-benzimidazole-6-carboxylic Acid] registered a melting point of 306 °C.

In turn, `COC(=O)c1cc(OCc2ccccc2)c2nc(C)n(C)c2c1` [Example 53, Methyl 4-benzyloxy-1,2-dimethyl-1H-benzimidazole-6-carboxylate] came in with a melting point of 166 °C.

The compound `CCOC(=O)c1cc(NCc2c(C)cccc2C)c2nc(C)n(COCc3ccccc3)c2c1` [Example 64, Ethyl1-benzyloxymethyl-4-(2,6-dimethyl-benzylamino)-2-methyl-1H-benzimidazole-6-carboxylate] came in with a melting point of 155 to 156 °C.

The compound `Cc1cccc(C)c1CNc1cc(C2=NCCN2C)cc2c1nc(C)n2C` [Example 73, 6-(4,5-Dihydro-1-methyl-1H-imidazol-2-yl)-4-(2,6-dimethyl-benzylamino)-1,2-dimethyl-1H-benzimidazole] displayed a melting point of 118 to 119 °C.

`CO[C@@H]1Cc2ccccc2[C@H]1Oc1cc(C(=O)N(C)C)cc2c1nc(C)n2C.O=C(O)C(=O)O` (relative stereo) [Example 12, 4-(trans-2,3-Dihydro-2-methoxy-1-indenyloxy)-6-(N,N-dimethylaminocarbonyl)-1,2-dimethyl-1H-benzimidazole Oxalate] registered a melting point of 126 to 127 °C.

With `CCc1cccc(C)c1CNc1cc(C(=O)N(C)C)cc2c1nc(CO)n2C` [Example 83, 6-(N,N-Dimethylaminocarbonyl)-4-(2-ethyl-6-methyl-benzylamino)-2-hydroxymethyl-1-methyl-1H-benzimidazole], the melting point was 138 to 141 °C.

The compound `CCOC(=O)c1cc(OCc2ccccc2)c2nc(C3CC3)n(C)c2c1` [Example 86, Ethyl 4-benzyloxy-2-cyclopropyl-1-methyl-1H-benzimidazole-6-carboxylate] came in with a melting point of 120 °C.

`Cc1coc(C)c1N(C)c1cc(C(=O)N(C)C)cc2c1nc(C)n2C` [Example 62, 6-(N,N-Dimethylaminocarbonyl)-4-(2,4-dimethyl-furan-3-yl-methylamino)-1,2-dimethyl-1H-benzimidazole] came in with a melting point of 163 to 164 °C.
